Reference: paper PMC3176295 (Bioorganic & medicinal chemistry, 2011)

What was measured:
M. tuberculosis H37Rv = assay: MIC determination by microbroth dilution against M. tuberculosis; format: cell-based, Mycobacterium tuberculosis; settings: for antitubercular activity / MIC in words: M. tuberculosis
EphB (Rv1938) = EphB (Rv1938) (Mycobacterium tuberculosis, UniProt I6YC03); format: biochemical; settings: 10 nM
EphE (Rv3670) = EphE (Rv3670) (Mycobacterium tuberculosis, UniProt O69638); assay: EphE inhibition, fluorescent assay with Epoxy Fluor 7; format: biochemical, M. tuberculosis; settings: for EphE activity in words: 10 nM; for % EphE Inhibition at 10 nM: inhibitor 10 nM, substrate 5 μM, duplicate; for inhibition at 0.01 µM: read-out: % EphE Inhibition at 10 nM, inhibitor 10 nM, substrate 5 μM, duplicate

EphB (Rv1938), sequence (I6YC03 whole entry): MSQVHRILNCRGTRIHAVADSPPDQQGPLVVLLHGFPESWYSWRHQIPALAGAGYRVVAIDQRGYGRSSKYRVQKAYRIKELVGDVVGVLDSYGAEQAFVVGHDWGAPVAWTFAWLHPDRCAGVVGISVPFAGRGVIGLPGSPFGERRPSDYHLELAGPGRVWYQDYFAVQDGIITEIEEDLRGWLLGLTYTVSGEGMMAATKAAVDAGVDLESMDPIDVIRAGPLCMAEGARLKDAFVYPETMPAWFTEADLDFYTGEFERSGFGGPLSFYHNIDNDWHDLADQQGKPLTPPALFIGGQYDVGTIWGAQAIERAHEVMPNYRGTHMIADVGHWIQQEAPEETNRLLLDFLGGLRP

Structure (SMILES)	antitubercular activity / MIC in words (M. tuberculosis H37Rv)	EphB inhibition in words (EphB (Rv1938))	EphE activity in words (EphE (Rv3670))	also measured
O=C(NCC12CC3CC(CC(C3)C1)C2)Nc1ccc(F)c(F)c1F [Compound 3, 1-(1-(1-Adamantyl)methyl)-3-(2,3,4-trifluorophenyl)urea]	good MIC values	relatively poor EphB inhibition	good EphE activity	% EphE Inhibition at 10 nM (EphE (Rv3670)): > 70%
CC(C)CCOc1ccc(NC(=O)Nc2ccc(OCCC(C)C)cc2)cc1 [Compound 41, 1,3-Bis(4-(isopentyloxy)phenyl)urea]	inactive			
COC(=O)c1ccc(NC(=O)NC23CC4CC(CC(C4)C2)C3)cc1O [Compound 36, Methyl 4-(3-(1-adamantyl)ureido)-2-hydroxybenzoate]	good antitubercular activity			
COc1ccc(NC(=O)NC2C3CC4CC(C3)CC2C4)cc1 (stereo not shown) [Compound 35, 1-(2-Adamantyl)-3-(4-methoxyphenyl)urea]	good antitubercular activity			
Fc1ccc(NC(=S)NC2C3CC4CC(C3)CC2C4)c(F)c1F (stereo not shown) [Compound 31, 1-(2-Adamantyl)-3-(2,3,4-trifluorophenyl)thiourea]				fold decrease in MIC activity (M. tuberculosis H37Rv; thiourea versus urea 1): 80 fold
O=C(Nc1ccc(F)c(F)c1F)NC1C2CC3CC(C2)CC1C3 (stereo not shown) [Compound 1, 1-(2-Adamantyl)-3-(2,3,4-trifluorophenyl)urea]				inhibition at 0.01 µM (EphE (Rv3670)): > 70%
O=C(Nc1ccc(F)c(F)c1F)OC1C2CC3CC(C2)CC1C3 (stereo not shown) [Compound 32, 2-Adamantyl 2,3,4-trifluorophenylcarbamate]				additional fold decrease in anti-M. tuberculosis potency (M. tuberculosis H37Rv; carbamate, additional to the decrease of thiourea 31): 10 fold
N#Cc1ccc(NC(=O)NC2C3CC4CC(C3)CC2C4)cc1 (stereo not shown) [Compound 10, 1-(2-Adamantyl)-3-(4-cyanophenyl)urea]	good MIC values	relatively poor EphB inhibition	good EphE activity	
Cc1ccc(NC(=O)NCC23CC4CC(CC(C4)C2)C3)cc1Cl [Compound 22, 1-(1-(1-Adamantyl)methyl)-3-(3-chloro-4-methylphenyl)urea]	good MIC values	relatively poor EphB inhibition	good EphE activity	
CCCCCCNC(=O)NC1C2CC3CC(C2)CC1C3 (stereo not shown) [Compound 20, 1-(2-Adamantyl)-3-hexylurea]	good MIC values	relatively poor EphB inhibition	good EphE activity	% EphE Inhibition at 10 nM (EphE (Rv3670)): > 70%
Cc1ccc(NC(=O)NC2CCCCCCC2)cc1Cl [Compound 24, 1-(3-Chloro-4-methylphenyl)-3-cyclooctylurea]				% EphE Inhibition at 10 nM (EphE (Rv3670)): > 70%
O=C(NCCc1ccccc1)NC1C2CC3CC(C2)CC1C3 (stereo not shown) [Compound 11, 1-(2-Adamantyl)-3-phenethylurea]	good MIC values	relatively poor EphB inhibition	good EphE activity	inhibition at 0.01 µM (EphE (Rv3670)): > 70%
